In patent US12037354B2, “Cyclic pantetheine derivatives and uses thereof” (VectivBio Comet AG, priority 2018, dated 2024):

How the values were obtained:
Format in all cases: cell-based, human
[1] = test system: Peripheral blood mononuclear cells co-cultured with venular endothelial cells (HUVEC) (LPS system); test: BioMAP LPS system, Example 827
Protocol: (§1) The BioMAP platform (BioMAP® Diversity PLUS Panel from Eurofins) is an in vitro phenotypic profiling technology that screened the compounds of the present disclosure (hereafter indicated as test agents) in human primary cell-based systems modelling complex tissue and disease states. The BioMAP assays were performed using the Eurofin's BioMAP Technology Platform as (see references 1 to 13 in the example 824 section) to model different diseases on primary cell-based model systems. These systems consisted of either single primary cell types or co-culture cells. Adherent cell types were cultured or co-cultured in 96 or 384-well plates until confluence followed by the addition of compounds prepared in DMSO at a final concentration of ≤0.1%. In each cell-based system, primary cells from heathy donors (2-6 donors) were pooled and treated with compounds at 1 and 10 μM dose 1 h prior to stimulation and remain in culture as indicated in
(§2) Example 825, Example 826, Example 827, Example 828, Example 829, Example 830, Example 831, Example 832, Example 833, Example 834, Example 835, Example 836 and Example 837. For on the BioMAP® Diversity PLUS® Panel, please see the following references, which are incorporate herein.
Following the general procedure as described in Example 824, Peripheral blood mononuclear cells co-cultured with venular endothelial cells (HUVEC) (LPS system) were stimulated with LPS for 24 h in the presence or absence of compounds, to model cardiovascular disease and chronic inflammation. Biomarkers read out were; MCP-1, VCAM-1, Thrombomodulin, Tissue Factor, CD40, E-selectin, CD69, IL-8, IL-1α, M-CSF, sPGE2, SRB and TNFα.

[2] = test system: Peripheral blood mononuclear cells co-cultured with B-cells (BT system); test: BioMAP BT system, Example 829
Protocol: as §1, §2
Following the general procedure as described in Example 824, Peripheral blood mononuclear cells were co-cultured with B-cells (BT system) were treated with either α-IgM and TCR ligands for 72 h in the presence or absence of the compounds to model asthma, allergy, oncology and autoimmunity. Biomarkers read out were; B-cell proliferation, PBMC cytotoxicity, secreted IgG, sIL-17A, sIL-17F, sIL-2, sIL-6 and s-TNFα.

[3] = test system: Dermal fibroblasts (HDF3CGF system); test: BioMAP HDF3CGF system, Example 833
Protocol: as §1, §2
Following the general procedure as described in Example 824, Dermal fibroblasts (HDF3CGF system) were treated with IL-1β, TNFα and IFNγ, EGF, bFGF and PDGF-BB for 24 h in the presence or absence of the compounds to model fibrosis and chronic inflammation. Biomarkers read out were; MCP-1, VCAM-1, ICAM-1, Collagen-I, Collagen-III, IP-10, I-TAC, IL-8, MIG, EGFR, M-CSF, MMP-1, PAI-1, SRB, TIMP-1, TIMP-2 and proliferation was measured for 72 h.

[4] = test system: Lung fibroblast (MyoF system); test: BioMAP MyoF system, Example 835; settings: 10 uM
Protocol: as §1, with “indicated in […]” for “indicated in”
Following the general procedure as described in Example 824, Lung fibroblast (MyoF system) were treated with TNFα and TGFβ for 48 h in the presence or absence of the compounds to model fibrosis, chronic inflammation, wound healing, matrix remodelling. Biomarker read out were; α-SM Actin, bFGF, VCAM-1, Collagen-I, Collagen-III, […], IL-8, decorin, MMP-1, PAI-1, TIMP-1, SRB

[5] = test system: Venular endothelial cells co-cultured with macrophages (Mphg system); test: BioMAP Mphg system, Example 836
Protocol: as §1, §2
Following the general procedure as described in Example 824, Venular endothelial cells co-cultured with macrophages (Mphg system) and treated with TLR2 ligand for 24 h in the presence or absence of the compounds to mimic cardiovascular inflammation, restenosis and chronic inflammation. Biomarkers read out were; MCP-1, MIP-1α, VCAM-1, CD40, E-selectin, CD69, IL-8, IL-1α, M-CSF, sIL-10 and SRB.

[6] = test system: Bronchial epithelial cells (BE3C system); test: BioMAP BE3C system, Example 831
Protocol: as §1, §2
Following the general procedure as described in Example 824, Bronchial epithelial cells (BE3C system) were treated with IL-1f3, TNFα and IFNγ for 24 h in the presence or absence of the compounds to model lung inflammation and chronic obstructive pulmonary disease (COPD). Biomarkers read out were; ICAM-1, uPAR, IP-10, I-TAC, IL-8, MIG, EGFR, HLA-DR, IL-1α, Keratin 8/18, MMP-1, MMP-9, PAI-1, SRB, tPA, uPA.

[7] = test system: Keratinocytes co-cultured with dermal fibroblast (KF3CT system); test: BioMAP KF3CT system, Example 834
Protocol: as §1, §2
Following the general procedure as described in Example 824, Keratinocytes were co-cultured with dermal fibroblast (KF3CT system) and treated with […], TNFα, IFNγ and TGFβ for 24 h in the presence or absence of the compounds to model psoriasis, dermatitis and skin biology. Biomarkers read out were; MCP-1, ICAM-1, IP-10, IL-8, MIG, IL-1α, MMP-9, PAI-1, SRB, TIMP-2, uPA.

[8] = Example 988, concentration tested 1 uM
[9] = procedure of Example 827, concentration tested 1 uM
[10] = procedure of Example 827, concentration tested 10 uM
[11] = procedure of Example 836, 10 uM

C/C=C/C(=O)SCCNC(=O)CCNC(=O)[C@@H]1OP(=O)(O)OCC1(C)C [Compound 36]
% decrease in M-CSF [1, 8]: ≥20%
% decrease in IL-1α ([1]; LPS system, 1 uM): ≥10%
% decrease in IL-8 ([1]; LPS system, 1 uM): ≥20%
% decrease in M-CSF ([1]; LPS system, 1 uM): ≥20%
% decrease in Thrombomodulin ([1]; LPS system, 1 uM): ≥10%
% decrease in Tissue Factor ([1]; LPS system, 10 uM): ≥10%
% decrease in sPGE2 ([1]; LPS system, 10 uM): ≥10%
% decrease in sTNFα ([1]; LPS system, 10 uM): ≥10%
% decrease in IL-1α ([1]; concentration tested 1 uM): ≥10%
% decrease in Thrombomodulin ([1]; concentration tested 1 uM): ≥10%
% decrease in Tissue Factor ([1]; concentration tested 10 uM): ≥10%
% decrease in sTNFα ([1]; concentration tested 10 uM): ≥10%
% decrease in IL-8 [1, 9]: ≥20%
% decrease in sTNFα ([2]; BT system, 1 uM): ≥10%
% increase in B-cell Proliferation ([2]; BT system, 10 uM): ≥20%
% increase in sIL-6 ([2]; BT system, 10 uM): ≥10%
% increase in B-cell Proliferation ([2]; concentration tested 10 uM): ≥20%
% decrease in EGFR ([3]; 1 uM): ≥10%
% decrease in TIMP-1 ([3]; 1 uM): ≥10%
% decrease in TIMP-2 ([3]; 1 uM): ≥20%
% decrease in MMP-1 ([3]; 10 uM): ≥10%
% increase in 72 Hour Proliferation ([3]; 10 uM): ≥10%
% decrease in uPA [4]: ≥10%
% increase in MIP-1α ([5]; Mphg system, 10 uM): ≥10%

CC(=O)CC(=O)SCCNC(=O)CCNC(=O)[C@@H]1OP(=O)(O)OCC1(C)C [Compound 42]
% decrease in M-CSF [1, 8]: ≥20%
% decrease in IL-1α ([1]; LPS system, 1 uM): ≥10%
% decrease in IL-8 ([1]; LPS system, 1 uM): ≥20%
% decrease in M-CSF ([1]; LPS system, 1 uM): ≥20%
% decrease in Thrombomodulin ([1]; LPS system, 1 uM): ≥10%
% decrease in Tissue Factor ([1]; LPS system, 10 uM): ≥10%
% increase in sTNFα ([1]; LPS system, 10 uM): ≥20%
% decrease in IL-1α ([1]; concentration tested 1 uM): ≥10%
% decrease in Thrombomodulin ([1]; concentration tested 1 uM): ≥10%
% decrease in Tissue Factor ([1]; concentration tested 10 uM): ≥10%
% increase in sTNFα ([1]; concentration tested 10 uM): ≥20%
% decrease in IL-8 [1, 9]: ≥20%
% decrease in B-cell proliferation ([2]; BT system, 10 uM): ≥10%
% decrease in sIL-17 ([2]; BT system, 10 uM): ≥20%
% decrease in sTNFα ([2]; BT system, 10 uM): ≥20%
% decrease in B-cell proliferation ([2]; concentration tested 10 uM): ≥10%
% decrease in sIL-17 ([2]; concentration tested 10 uM): ≥20%
% decrease in MMP-9 ([6]; 1 uM): ≥10%
% decrease in TIMP-2 ([3]; 10 uM): ≥10%
% decrease in MCP-1 ([7]; 1 uM (Example 927)): ≥10%
% decrease in MCP-1 ([7]; 1 uM (Example 928)): ≥10%
% decrease in α-SMA ([5]; procedure of Example 836, 1 uM): ≥10%
% increase in MMP-1 ([5]; procedure of Example 836, 1 uM): ≥10%

CCOP1(=O)OCC(C)(C)[C@H](C(=O)NCCC(=O)NCCSC(=O)CCC(=O)O)O1 (stereo partly drawn) [Compound 61]
% decrease in M-CSF [1, 8]: ≥10%
% decrease in IL-1α ([1]; LPS system, 1 uM): ≥10%
% decrease in M-CSF ([1]; LPS system, 1 uM): ≥10%
% decrease in sTNFα ([1]; LPS system, 1 uM): ≥10%
% decrease in IL-8 ([1]; LPS system, 10 uM): ≥20%
% decrease in Tissue Factor ([1]; LPS system, 10 uM): ≥10%
% increase in sTNFα ([1]; LPS system, 10 uM): ≥10%
% decrease in IL-1α ([1]; concentration tested 1 uM): ≥10%
% decrease in sTNFα ([1]; concentration tested 1 uM): ≥10%
% decrease in Tissue Factor ([1]; concentration tested 10 uM): ≥10%
% increase in sTNFα ([1]; concentration tested 10 uM): ≥10%
% decrease in IL-8 [1, 10]: ≥20%
% increase in B-cell Proliferation ([2]; BT system, 10 uM): ≥10%
% increase in sIL-6 ([2]; BT system, 10 uM): ≥10%
% increase in B-cell Proliferation ([2]; concentration tested 10 uM): ≥10%
% decrease in MMP-9 ([6]; 1 uM): ≥10%
% decrease in TIMP-1 ([3]; 10 uM): ≥10%
% decrease in MCP-1 ([7]; 1 uM (Example 927)): ≥20%
% decrease in MCP-1 ([7]; 1 uM (Example 928)): ≥20%
% decrease in α-SMA [5, 11]: ≥10%
% increase in MMP-1 [5, 11]: ≥10%

COC(=O)CCC(=O)SCCNC(=O)CCNC(=O)[C@@H]1OC(=O)OCC1(C)C [Compound 451]
% decrease in M-CSF [1, 8]: ≥20%
% decrease in IL-1α ([1]; LPS system, 1 uM): ≥10%
% decrease in M-CSF ([1]; LPS system, 1 uM): ≥20%
% decrease in Thrombomodulin ([1]; LPS system, 1 uM): ≥10%
% decrease in IL-8 ([1]; LPS system, 10 uM): ≥20%
% decrease in Tissue Factor ([1]; LPS system, 10 uM): ≥10%
% decrease in IL-1α ([1]; concentration tested 1 uM): ≥10%
% decrease in Thrombomodulin ([1]; concentration tested 1 uM): ≥10%
% decrease in Tissue Factor ([1]; concentration tested 10 uM): ≥10%
% decrease in IL-8 [1, 10]: ≥20%
% decrease in sTNFα ([2]; BT system, 1 uM): ≥20%
% increase in B-cell Proliferation ([2]; BT system, 1 uM): ≥10%
% increase in B-cell Proliferation ([2]; concentration tested 1 uM): ≥10%
% decrease in MMP-9 ([6]; 1 uM): ≥10%
% decrease in tPA ([6]; 10 uM): ≥10%
% decrease in Collagen III ([3]; 1 uM): ≥10%
% decrease in TIMP-1 ([3]; 1 uM): ≥10%
% decrease in MCP-1 ([7]; 1 uM (Example 927)): ≥10%
% decrease in MCP-1 ([7]; 1 uM (Example 928)): ≥10%
% decrease in α-SMA ([5]; procedure of Example 836, 1 uM): ≥10%
% decrease in VCAM-1 [5, 11]: ≥10%
% increase in MMP-1 [5, 11]: ≥10%

COC(=O)CCC(=O)SCCNC(=O)CCNC(=O)[C@@H]1OC(C)(CC(=O)OC)OCC1(C)C (stereo partly drawn) [Compound 633]
% decrease in M-CSF [1, 8]: ≥10%
% decrease in IL-8 ([1]; LPS system, 1 uM): ≥20%
% decrease in M-CSF ([1]; LPS system, 1 uM): ≥10%
% decrease in Thrombomodulin ([1]; LPS system, 1 uM): ≥20%
% decrease in Tissue Factor ([1]; LPS system, 1 uM): ≥10%
% decrease in sPGE2 ([1]; LPS system, 1 uM): ≥10%
% decrease in sTNFα ([1]; LPS system, 1 uM): ≥10%
% increase in sTNFα ([1]; LPS system, 10 uM): ≥10%
% decrease in Thrombomodulin ([1]; concentration tested 1 uM): ≥20%
% decrease in Tissue Factor ([1]; concentration tested 1 uM): ≥10%
% decrease in sTNFα ([1]; concentration tested 1 uM): ≥10%
% increase in sTNFα ([1]; concentration tested 10 uM): ≥10%
% decrease in IL-8 [1, 9]: ≥20%
% decrease in sTNFα ([2]; BT system, 10 uM): ≥10%
% increase in B-cell Proliferation ([2]; BT system, 10 uM): ≥20%
% increase in sIL-2 ([2]; BT system, 10 uM): ≥20%
% increase in sIL-6 ([2]; BT system, 10 uM): ≥20%
% increase in B-cell Proliferation ([2]; concentration tested 10 uM): ≥20%
% increase in IL-8 ([6]; 1 uM): ≥10%
% decrease in MMP-9 ([6]; 10 uM): ≥10%
% decrease in EGFR ([3]; 1 uM): ≥10%
% decrease in TIMP-1 ([3]; 1 uM): ≥20%
% decrease in TIMP-2 ([3]; 1 uM): ≥10%
% increase in 72 Hour Proliferation ([3]; 10 uM): ≥10%
% increase in PAI-I ([3]; 10 uM): ≥10%
% decrease in MCP-1 ([7]; 1 uM (Example 927)): ≥10%
% decrease in MCP-1 ([7]; 1 uM (Example 928)): ≥10%
% decrease in uPA [4]: ≥10%
% decrease in VCAM-1 ([5]; procedure of Example 836, 1 uM): ≥10%
% decrease in α-SMA [5, 11]: ≥10%
